In patent publication US9422285B2, “Substituted pyrazolo[1,5-A]-pyridine-3-carboxamides and use thereof” (Bayer Pharma Aktiengesellschaft, priority 2014, dated 2016):
Structures can show the parent of a compound that is named as a salt.

Each molecule was assayed against T1, recombinant guanylate cyclase reporter cell line (Rattus norvegicus, UniProt P19686+P20595) (assay: Effect on a recombinant guanylate cyclase reporter cell line (B-2)). Conditions: in some cases mean values for individual determinations.
T1 construct: expressed in transfected cells
T1 sequence (P19686 1-690): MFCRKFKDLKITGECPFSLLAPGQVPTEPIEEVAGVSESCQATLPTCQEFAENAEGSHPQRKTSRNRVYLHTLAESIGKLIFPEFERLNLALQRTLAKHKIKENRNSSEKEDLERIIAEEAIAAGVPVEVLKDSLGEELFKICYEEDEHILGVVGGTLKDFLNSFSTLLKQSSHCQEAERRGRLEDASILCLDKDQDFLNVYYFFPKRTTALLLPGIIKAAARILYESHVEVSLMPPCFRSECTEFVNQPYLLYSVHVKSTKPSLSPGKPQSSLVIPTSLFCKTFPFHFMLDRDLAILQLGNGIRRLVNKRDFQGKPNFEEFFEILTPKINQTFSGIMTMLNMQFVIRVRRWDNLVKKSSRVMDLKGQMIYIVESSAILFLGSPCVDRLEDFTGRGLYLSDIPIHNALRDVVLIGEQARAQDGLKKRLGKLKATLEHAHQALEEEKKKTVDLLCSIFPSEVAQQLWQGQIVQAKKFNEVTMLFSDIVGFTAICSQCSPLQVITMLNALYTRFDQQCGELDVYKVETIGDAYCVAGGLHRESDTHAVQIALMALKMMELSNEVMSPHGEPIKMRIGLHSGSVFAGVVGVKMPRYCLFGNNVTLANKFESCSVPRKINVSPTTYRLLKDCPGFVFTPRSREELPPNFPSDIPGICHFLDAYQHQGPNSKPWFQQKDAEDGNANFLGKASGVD
T1 sequence (P20595 1-619): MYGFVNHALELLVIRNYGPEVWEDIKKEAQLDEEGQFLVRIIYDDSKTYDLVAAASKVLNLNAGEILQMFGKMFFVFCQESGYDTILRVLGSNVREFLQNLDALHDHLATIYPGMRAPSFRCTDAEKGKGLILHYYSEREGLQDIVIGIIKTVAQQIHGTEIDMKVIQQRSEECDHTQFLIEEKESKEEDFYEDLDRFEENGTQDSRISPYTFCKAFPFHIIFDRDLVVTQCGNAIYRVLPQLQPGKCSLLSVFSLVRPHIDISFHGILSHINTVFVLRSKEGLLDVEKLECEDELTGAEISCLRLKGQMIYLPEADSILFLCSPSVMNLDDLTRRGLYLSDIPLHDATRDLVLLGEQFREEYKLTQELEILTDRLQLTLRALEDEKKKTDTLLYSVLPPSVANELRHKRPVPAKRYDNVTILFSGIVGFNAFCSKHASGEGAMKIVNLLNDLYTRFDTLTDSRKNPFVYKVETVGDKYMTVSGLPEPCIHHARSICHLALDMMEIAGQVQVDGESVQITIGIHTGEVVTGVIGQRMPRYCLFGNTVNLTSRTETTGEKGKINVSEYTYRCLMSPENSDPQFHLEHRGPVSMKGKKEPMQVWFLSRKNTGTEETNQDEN
Assay type: cell-based
Method: B-2. Effect on a Recombinant Guanylate Cyclase Reporter Cell Line
The cellular effect of the inventive compounds is determined using a recombinant guanylate cyclase reporter cell line, as described in F. Wunder et al., Anal. Biochem. 339, 104-112 (2005).
Representative MEC values (MEC=minimum effective concentration) for the inventive compounds are shown in the table below (in some cases as mean values for individual determinations): […]

| MEC (minimum effective concentration) [µM] | Compound |
| --- | --- |
| 1.0 | CCCC(C)(N)CNC(=O)c1c(C)nn2c(OCc3cccc(F)c3F)cc(C)cc12 (racemic) [Example 158, rac-N-(2-Amino-2-methylpentyl)-7-[(2,3-difluorobenzyl)oxy]-2,5-dimethylpyrazolo[1,5-a]pyridine-3-carboxamide] |
| 3.0 | CCCC(C)(N)CNC(=O)c1c(C)nn2c(OCC3CCCCC3)cc(C)cc12 (racemic) [Example 159, rac-N-(2-Amino-2-methylpentyl)-7-(cyclohexylmethoxy)-2,5-dimethylpyrazolo[1,5-a]pyridine-3-carboxamide] |
| 3.0 | CCCC(C)(N)CNC(=O)c1c(C)nn2c(OCc3c(F)ccc(OC)c3F)cc(C)cc12 (racemic) [Example 161, rac-N-(2-Amino-2-methylpentyl)-7-[(2,6-difluoro-3-methoxybenzyl)oxy]-2,5-dimethylpyrazolo[1,5-a]pyridine-3-carboxamide] |
| 3.0 | CCCC(C)(N)CNC(=O)c1c(C)nn2c(OCc3c(F)cccc3F)cccc12 (racemic) [Example 163, rac-N-(2-Amino-2-methylpentyl)-7-[(2,6-difluorobenzyl)oxy]-2-methylpyrazolo[1,5-a]pyridine-3-carboxamide] |
| 1.0 | CCCC(C)(N)CNC(=O)c1c(C)nn2c(OCc3c(F)cccc3Cl)cc(C)cc12 (racemic) [Example 164] |
| 10 | CCCC(C)(N)CNC(=O)c1c(C)nn2c(OCc3ncccc3F)cc(C)cc12 (racemic) [Example 166, rac-N-(2-Amino-2-methylpentyl)-7-[(3-fluoropyridin-2-yl)methoxy]-2,5-dimethylpyrazolo[1,5-a]pyridine-3-carboxamide] |
| 3.0 | CCCC(C)(N)CNC(=O)c1c(C)nn2c(OCc3c(F)cccc3F)cc(C3CC3)cc12 (racemic) [Example 167, rac-N-(2-Amino-2-methylpentyl)-5-cyclopropyl-7-[(2,6-difluorobenzyl)oxy]-2-methylpyrazolo[1,5-a]pyridine-3-carboxamide] |
| 1.0 | CCCC(C)(N)CNC(=O)c1c(C)nn2c(OCc3c(F)cccc3F)cc(OC)cc12 (racemic) [Example 171, rac-N-(2-Amino-2-methylpentyl)-7-[(2,6-difluorobenzyl)oxy]-5-methoxy-2-methylpyrazolo[1,5-a]pyridine-3-carboxamide] |
| 0.3 | CCCC(C)(N)CNC(=O)c1c(C)nn2c(OCc3c(F)cccc3F)cc(CC)cc12 (racemic) [Example 172, rac-N-(2-Amino-2-methylpentyl)-7-[(2,6-difluorobenzyl)oxy]-5-ethyl-2-methylpyrazolo[1,5-a]pyridine-3-carboxamide] |

Continued, molecule first:

| Compound | MEC (minimum effective concentration) [µM] |
| --- | --- |
| CSCCC(N)CNC(=O)c1c(C)nn2c(OCc3c(F)cccc3F)cc(C)cc12 (racemic) [Example 156, rac-N-[2-Amino-4-(methylsulphanyl)butyl]-7-[(2,6-difluorobenzyl)oxy]-2,5-dimethylpyrazolo[1,5-a]pyridine-3-carboxamide] | 0.3 |
| CCCC(C)(N)CNC(=O)c1c(C)nn2c(OCCC(C)C)cc(C)cc12 (racemic) [Example 160, rac-N-(2-Amino-2-methylpentyl)-2,5-dimethyl-7-(3-methylbutoxy)pyrazolo[1,5-a]pyridine-3-carboxamide] | 3.0 |
| Cc1cc(OCc2c(F)cccc2F)n2nc(C)c(C(=O)N[C@@H]3COC[C@@H]3N)c2c1 (relative stereo) [Example 69, rel-N-[(3R,4S)-4-Aminotetrahydrofuran-3-yl]-7-[(2,6-difluorobenzyl)oxy]-2,5-dimethylpyrazolo[1,5-a]pyridine-3-carboxamide] | 10 |
| Cc1cc(OCc2c(F)cccc2F)n2nc(C)c(C(=O)NC3CC[C@@H]4NCC[C@H]34)c2c1 (relative stereo) [Example 122, rel-7-[(2,6-Difluorobenzyl)oxy]-2,5-dimethyl-N-[(3aR,6aR)-octahydrocyclopenta[b]pyrrol-4-yl]pyrazolo[1,5-a]pyridine-3-carboxamide] | 10 |
| Cc1cc(OCc2c(F)cccc2F)n2nc(C)c(C(=O)N[C@@H]3CNC[C@@H]3F)c2c1 (relative stereo) [Example 128, rel-7-[(2,6-Difluorobenzyl)oxy]-N-[(3R,4S)-4-fluoropyrrolidin-3-yl]-2,5-dimethylpyrazolo[1,5-a]pyridine-3-carboxamide] | 1.0 |
| Cc1cc(OCc2c(F)cccc2F)n2nc(C)c(C(=O)N[C@H]3c4ccccc4C[C@H]3CO)c2c1 (relative stereo) [Example 143, rel-7-[(2,6-Difluorobenzyl)oxy]-N-[(1R,2R)-2-(hydroxymethyl)-2,3-dihydro-1H-inden-1-yl]-2,5-dimethylpyrazolo[1,5-a]pyridine-3-carboxamide] | 0.3 |
| CCC(C)(N)CNC(=O)c1c(C)nn2c(OCc3c(F)cccc3F)cc(C)cc12 (single isomer, unassigned) [Example 2, ent-N-(2-Amino-2-methylbutyl)-7-[(2,6-difluorobenzyl)oxy]-2,5-dimethylpyrazolo[1,5-a]pyridine-3-carboxamide formate] | 0.3 |
| CCC(C)(N)CNC(=O)c1c(C)nn2c(OCc3c(F)ccc(F)c3F)cc(C)cc12 (single isomer, unassigned) [Example 3, ent-N-(2-Amino-2-methylbutyl)-2,5-dimethyl-7-[(2,3,6-trifluorobenzyl)oxy]pyrazolo[1,5-a]pyridine-3-carboxamide] | 0.3 |
| CCCC(C)(N)CNC(=O)c1c(C)nn2c(OCc3c(F)ccc(F)c3F)cc(C)cc12 (single isomer, unassigned) [Example 4, ent-N-(2-Amino-2-methylpentyl)-2,5-dimethyl-7-[(2,3,6-trifluorobenzyl)oxy]pyrazolo[1,5-a]pyridine-3-carboxamide] | 0.2 |
| Cc1cc(OCc2c(F)cccc2F)n2nc(C)c(C(=O)NCC(C)(N)CF)c2c1 (single isomer, unassigned) [Example 40, ent-N-(2-Amino-3-fluoro-2-methylpropyl)-7-[(2,6-difluorobenzyl)oxy]-2,5-dimethylpyrazolo[1,5-a]pyridine-3-carboxamide] | 1.0 |
| Cc1cc(OCc2c(F)cccc2F)n2nc(C)c(C(=O)NCC(C)(N)CF)c2c1 (single isomer, unassigned) [Example 41, ent-N-(2-Amino-3-fluoro-2-methylpropyl)-7-[(2,6-difluorobenzyl)oxy]-2,5-dimethylpyrazolo[1,5-a]pyridine-3-carboxamide] | 0.3 |
| Cc1cc(OCc2c(F)cccc2F)n2nc(C)c(C(=O)NCC(C)(N)CCC(F)(F)F)c2c1 (single isomer, unassigned) [Example 42, ent-N-(2-Amino-5,5,5-trifluoro-2-methylpentyl)-7-[(2,6-difluorobenzyl)oxy]-2,5-dimethylpyrazolo[1,5-a]pyridine-3-carboxamide] | 0.3 |
| Cc1cc(OCc2c(F)cccc2F)n2nc(C)c(C(=O)NCC(C)(N)CCCF)c2c1 (single isomer, unassigned) [Example 44, ent-N-(2-Amino-5-fluoro-2-methylpentyl)-7-[(2,6-difluorobenzyl)oxy]-2,5-dimethylpyrazolo[1,5-a]pyridine-3-carboxamide] | 0.3 |
| Cc1cc(OCc2c(F)cccc2F)n2nc(C)c(C(=O)NCC(C)(N)CCCF)c2c1 (single isomer, unassigned) [Example 45, ent-N-(2-Amino-5-fluoro-2-methylpentyl)-7-[(2,6-difluorobenzyl)oxy]-2,5-dimethylpyrazolo[1,5-a]pyridine-3-carboxamide] | 0.3 |
